Results as given in PubChem BioAssay AID2060901 (Molecular Pharmacology Branch, DTP, NCI, 2025).

System: 422866-222-R5-J1-PDC complex spheroids viability
Assay: Anticancer human tumor 422866-222-R5-J1-PDC patient-derived pancreatic adenocarcinoma cell line growth inhibition [RAS]
Settings: for viability, T/C: stronger effect = lower value
Procedure, shortened: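 Multi-cell-type spheroids: tumor cells plus HUVEC endothelial cells and mesenchymal stem cells. RAS-pathway inhibitors were combined with targeted agents, each dosed in half-log steps down from clinical Cmax, or from 10 microM when Cmax was unknown.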
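Also: spheroids exposed to compounds for 7 days.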
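For viability, T/C in this document: 100% = DMSO vehicle control viability.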

Q: `C#Cc1c(F)ccc2cc(O)cc(-c3ncc4c(N5CC6CCC(C5)N6)nc(OCC56CCCN5CC(F)C6)nc4c3F)c12` (stereo not drawn) was tested. Which viability, T/C (compound 0.0316 µM) did it give?
A: 98.7% [middle of 8 runs]

Q: And the viability, T/C (compound 0.316 µM)?
A: 67.4% [middle of 8 runs]

Q: And the viability, T/C (compound 1 µM)?
A: 51.8% [middle of 8 runs]

Q: And the viability, T/C (compound 3.16 µM)?
A: 37.3% [middle of 8 runs]

Q: What about the viability, T/C (compound 10 µM) of the same molecule?
A: 26.2% [middle of 8 runs]

Q: And the IC50 (compound alone, run of 06/10/2024)?
A: 1.11 µM [middle of 8 runs]

Q: With `C[C@@H](NC(=O)c1ncnc(N)c1Cl)c1ncc(C(=O)Nc2cc(C(F)(F)F)c(Cl)cn2)s1` + CCn1c(-c2cc(N3CCN(C)CC3)cnc2C(C)OC)c2c3cc(ccc31)-c1csc(n1)CC(NC(=O)C1CC1C)C(=O)N1CCCC(N1)C(=O)OCC(C)(C)C2 as the molecule, how does the IC50 (curve of first compound, second compound 0.000949 µM) read?
A: < 31.6 nM

Q: And the IC50 (curve of first compound, second compound 0.003 µM)?
A: < 31.6 nM

Q: And the IC50 (curve of first compound, second compound 0.00949 µM)?
A: < 31.6 nM

Q: What about the IC50 (curve of first compound, second compound 0.03 µM) of the same molecule?
A: < 31.6 nM

Q: And the IC50 (curve of first compound, second compound 0.0949 µM)?
A: < 31.6 nM

Q: What about the IC50 (curve of first compound, second compound 0.3 µM) of the same molecule?
A: < 31.6 nM

Q: What about the viability, T/C (second compound 0.000949 µM, first compound 0.0316 µM) of the same molecule?
A: 33.8%

Q: And the viability, T/C (second compound 0.000949 µM, first compound 0.1 µM)?
A: 40.3%

Q: And the viability, T/C (second compound 0.000949 µM, first compound 0.316 µM)?
A: 33.5%

Q: And the viability, T/C (second compound 0.000949 µM, first compound 1 µM)?
A: 36.9%

Q: What about the viability, T/C (second compound 0.000949 µM, first compound 3.16 µM) of the same molecule?
A: 39.1%

Q: And the viability, T/C (second compound 0.000949 µM, first compound 10 µM)?
A: 37.2%

Q: What about the viability, T/C (second compound 0.003 µM, first compound 0.0316 µM) of the same molecule?
A: 24.8%

Q: And the viability, T/C (second compound 0.003 µM, first compound 0.1 µM)?
A: 26.4%

Q: And the viability, T/C (second compound 0.003 µM, first compound 0.316 µM)?
A: 26.2%

Q: What about the viability, T/C (second compound 0.003 µM, first compound 1 µM) of the same molecule?
A: 25.8%

Q: And the viability, T/C (second compound 0.003 µM, first compound 3.16 µM)?
A: 26.1%

Q: What about the viability, T/C (second compound 0.003 µM, first compound 10 µM) of the same molecule?
A: 30.1%

Q: What about the viability, T/C (second compound 0.00949 µM, first compound 0.0316 µM) of the same molecule?
A: 21%

Q: What about the viability, T/C (second compound 0.00949 µM, first compound 0.1 µM) of the same molecule?
A: 20.3%

Q: What about the viability, T/C (second compound 0.00949 µM, first compound 0.316 µM) of the same molecule?
A: 21.1%

Q: What about the viability, T/C (second compound 0.00949 µM, first compound 1 µM) of the same molecule?
A: 22.2%

Q: And the viability, T/C (second compound 0.00949 µM, first compound 3.16 µM)?
A: 24.3%

Q: And the viability, T/C (second compound 0.00949 µM, first compound 10 µM)?
A: 24.3%

Q: What about the viability, T/C (second compound 0.03 µM, first compound 0.0316 µM) of the same molecule?
A: 20.4%

Q: What about the viability, T/C (second compound 0.03 µM, first compound 0.1 µM) of the same molecule?
A: 19.8%

Q: What about the viability, T/C (second compound 0.03 µM, first compound 0.316 µM) of the same molecule?
A: 20.8%

Q: And the viability, T/C (second compound 0.03 µM, first compound 1 µM)?
A: 23.8%

Q: What about the viability, T/C (second compound 0.03 µM, first compound 3.16 µM) of the same molecule?
A: 24.1%

Q: And the viability, T/C (second compound 0.03 µM, first compound 10 µM)?
A: 22.2%

Q: What about the viability, T/C (second compound 0.0949 µM, first compound 0.0316 µM) of the same molecule?
A: 21.3%

Q: What about the viability, T/C (second compound 0.0949 µM, first compound 0.1 µM) of the same molecule?
A: 20.6%

Q: What about the viability, T/C (second compound 0.0949 µM, first compound 0.316 µM) of the same molecule?
A: 21.1%

Q: What about the viability, T/C (second compound 0.0949 µM, first compound 1 µM) of the same molecule?
A: 19.9%

Q: And the viability, T/C (second compound 0.0949 µM, first compound 3.16 µM)?
A: 23.1%

Q: And the viability, T/C (second compound 0.0949 µM, first compound 10 µM)?
A: 24.3%

Q: And the viability, T/C (second compound 0.3 µM, first compound 0.0316 µM)?
A: 19.5%

Q: And the viability, T/C (second compound 0.3 µM, first compound 0.1 µM)?
A: 20.2%

Q: And the viability, T/C (second compound 0.3 µM, first compound 0.316 µM)?
A: 21.4%

Q: And the viability, T/C (second compound 0.3 µM, first compound 1 µM)?
A: 20.9%

Q: What about the viability, T/C (second compound 0.3 µM, first compound 3.16 µM) of the same molecule?
A: 22.6%

Q: What about the viability, T/C (second compound 0.3 µM, first compound 10 µM) of the same molecule?
A: 24.8%
